Measurements published in ChEMBL document CHEMBL4351016 (Eur J Med Chem, 2019).
Active and inactive are the calls of the source. The calls are words filed in the database; no cut-off is given here.

What was measured:
CWR22R [1] = test: Antiproliferative activity against AR-positive human 22Rv1 cells harboring ARE14 construct assessed as cell viability at 40 uM after 72 hrs by resazurin dye based fluorescence assay; assay type: functional; details: 22Rv1, 72 h, read-out: Activity
LNCaP C4-2 [2] = test: Antiproliferative activity against AR-positive human C4-2 cells assessed as cell viability at 40 uM after 72 hrs by resazurin dye based fluorescence assay; assay type: functional; details: LNCaP C4-2, 72 h, read-out: Activity
PC-3 [3] = test: Antiproliferative activity against AR-negative human PC3 cells assessed as growth inhibition after 72 hrs by resazurin dye based fluorescence assay; assay type: functional; details: PC-3, 72 h
CWR22R [4] = test: Antiproliferative activity against AR-positive human 22Rv1 cells harboring ARE14 construct assessed as growth inhibition after 72 hrs by resazurin dye based fluorescence assay; assay type: functional; details: 22Rv1, 72 h
VCaP [5] = test: Antiproliferative activity against AR-positive human VCaP cells assessed as growth inhibition after 72 hrs by resazurin dye based fluorescence assay; assay type: functional
VCaP [6] = test: Antiproliferative activity against AR-positive human VCaP cells assessed as cell viability at 40 uM after 72 hrs by resazurin dye based fluorescence assay; assay type: functional; details: read-out: Activity
PC-3 [7] = test: Antiproliferative activity against AR-negative human PC3 cells assessed as cell viability at 40 uM after 72 hrs by resazurin dye based fluorescence assay; assay type: functional; details: PC-3, 72 h, read-out: Activity
LNCaP C4-2 [8] = test: Antiproliferative activity against AR-positive human C4-2 cells assessed as growth inhibition after 72 hrs by resazurin dye based fluorescence assay; assay type: functional; details: LNCaP C4-2, 72 h
[9] = molecular target: T1, Androgen receptor (Homo sapiens) (UniProt P10275); test: Inhibition of R1881-stimulated AR transcriptional activity in AR-positive human VCaP cells assessed as decrease in NKX3.1 protein expression at 20 uM after 48 hrs by immunoblot analysis; assay type: cell-based
T1 sequence (whole entry): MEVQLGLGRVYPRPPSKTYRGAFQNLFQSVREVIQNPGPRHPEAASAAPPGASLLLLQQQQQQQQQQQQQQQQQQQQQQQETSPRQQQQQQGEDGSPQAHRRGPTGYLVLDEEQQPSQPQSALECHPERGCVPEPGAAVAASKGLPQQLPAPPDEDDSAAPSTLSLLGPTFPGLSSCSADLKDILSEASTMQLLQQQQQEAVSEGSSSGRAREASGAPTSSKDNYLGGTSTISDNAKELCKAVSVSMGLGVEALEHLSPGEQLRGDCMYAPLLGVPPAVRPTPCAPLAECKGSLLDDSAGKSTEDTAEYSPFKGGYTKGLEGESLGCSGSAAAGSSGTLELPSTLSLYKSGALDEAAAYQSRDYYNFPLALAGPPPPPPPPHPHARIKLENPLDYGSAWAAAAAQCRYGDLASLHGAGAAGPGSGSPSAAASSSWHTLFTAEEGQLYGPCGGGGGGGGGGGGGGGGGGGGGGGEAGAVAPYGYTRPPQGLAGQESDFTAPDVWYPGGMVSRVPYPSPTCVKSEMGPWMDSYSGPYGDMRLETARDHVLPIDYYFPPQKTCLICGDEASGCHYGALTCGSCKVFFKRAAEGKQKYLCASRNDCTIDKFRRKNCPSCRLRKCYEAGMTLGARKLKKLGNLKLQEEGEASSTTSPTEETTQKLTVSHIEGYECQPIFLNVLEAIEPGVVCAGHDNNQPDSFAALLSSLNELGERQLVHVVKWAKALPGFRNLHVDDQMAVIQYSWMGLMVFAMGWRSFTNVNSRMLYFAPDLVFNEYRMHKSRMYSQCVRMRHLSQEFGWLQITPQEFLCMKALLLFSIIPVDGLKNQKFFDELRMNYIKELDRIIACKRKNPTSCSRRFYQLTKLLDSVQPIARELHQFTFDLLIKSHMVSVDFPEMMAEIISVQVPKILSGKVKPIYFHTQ

CWR22R [10] = test: Induction of apoptosis in R1881-activated AR-positive human 22Rv1 cells harboring ARE14 construct assessed as cleaved PARP level at 5 uM after 24 hrs by immunoblot analysis; assay type: functional, cell-based
Androgen receptor = molecular target: T2, Androgen receptor (Homo sapiens, UniProt P10275); test: (§1) Inhibition of R1881 induced-AR transcriptional activity in AR-positive human 22Rv1 cells harboring ARE14 construct after 24 hrs by luciferase assay
T2 sequence (P10275 whole entry): T1 sequence (whole entry)

[11] = molecular target: T1, Androgen receptor (Homo sapiens); test: as §1
BJ = test: Antiproliferative activity against human BJ cells assessed as growth inhibition after 24 hrs by resazurin dye based fluorescence assay; assay type: functional
CWR22R [12] = test: Effect on AR-V7 protein expression in AR-positive human 22Rv1 cells harboring ARE14 construct at 5 uM after 24 hrs by immunoblot analysis; assay type: functional, cell-based
VCaP [13] = test: Induction of apoptosis in R1881-stimulated AR-positive human VCaP cells assessed as caspase-3/7 activation at 20 uM using Ac-DEVD-AMC as substrate after 24 to 72 hrs by fluorescence based microplate reader analysis; assay type: functional, cell-based
CWR22R [14] = test: Inhibition of colony formation in AR-positive human 22Rv1 cells harboring ARE14 construct at 0.625 to 10 uM incubated for 10 days by crystal violet staining based analysis; assay type: functional, cell-based
[15] = molecular target: T1, Androgen receptor (Homo sapiens); test: Inhibition of AR transcriptional activity in AR-positive human 22Rv1 cells harboring ARE14 construct assessed as downregulation of NKX3.1 protein expression at 5 uM after 24 hrs by immunoblot analysis
[16] = molecular target: T1, Androgen receptor (Homo sapiens); details: at 10 µM
Description: Inhibition of R1881 induced-AR transcriptional activity in AR-positive human 22Rv1 cells harboring ARE14 construct at 10 uM after 24 hrs by luciferase assay relative to control

VCaP [17] = test: Induction of apoptosis in R1881-stimulated AR-positive human VCaP cells assessed as PARP cleavage at 20 uM after 24 to 72 hrs by immunoblot analysis; assay type: functional, cell-based
VCaP [18] = test: Downregulation of AR protein expression in R1881-stimulated AR-positive human VCaP cells at 20 uM after 48 hrs by immunoblot analysis; assay type: functional, cell-based
[19] = molecular target: T1, Androgen receptor (Homo sapiens); test: Inhibition of R1881-stimulated AR transcriptional activity in AR-positive human VCaP cells assessed as NKX3.1 protein expression at 20 uM after 24 hrs by immunoblot analysis; assay type: cell-based
[20] = molecular target: T1, Androgen receptor (Homo sapiens); test: Inhibition of R1881 induced-AR transcriptional activity in AR-positive human 22Rv1 cells harboring ARE14 construct assessed as suppression of NKX3.1 expression at 5 uM after 24 hrs by immunoblot analysis
CWR22R [21] = test: Antiproliferative activity against AR-positive human 22Rv1 cells harboring ARE14 construct assessed as growth inhibition after 24 hrs by resazurin dye based fluorescence assay; assay type: functional; details: 22Rv1, 24 h
[22] = molecular target: T1, Androgen receptor (Homo sapiens); test: Inhibition of R1881-stimulated AR transcriptional activity in AR-positive human VCaP cells assessed as decrease in PSA protein expression at 20 uM after 48 hrs by immunoblot analysis; assay type: cell-based
[23] = molecular target: T1, Androgen receptor (Homo sapiens); test: Inhibition of R1881-stimulated AR transcriptional activity in AR-positive human VCaP cells assessed as PSA protein expression at 20 uM after 24 hrs by immunoblot analysis; assay type: cell-based
[24] = molecular target: T1, Androgen receptor (Homo sapiens); test: Inhibition of R1881 induced-AR transcriptional activity in AR-positive human 22Rv1 cells harboring ARE14 construct assessed as suppression of PSA expression at 5 uM after 24 hrs by immunoblot analysis

Structure (SMILES): CNC(=O)c1ccc(N2C(=S)N(c3ccc(C#N)c(C(F)(F)F)c3)C(=O)C2(C)C)cc1F [ENZALUTAMIDE]
- viability at 40 µM (CWR22R [1]): 84%
- viability at 40 µM (LNCaP C4-2 [2]): 91.5%
- GI50 (PC-3 [3]): > 40000 nM
- GI50 (CWR22R [4]): > 40000 nM
- GI50 (VCaP [5]): > 40000 nM
- viability at 40 µM (VCaP [6]): 61.2%
- viability at 40 µM (PC-3 [7]): 74%
- GI50 (LNCaP C4-2 [8]): > 40000 nM

Structure (SMILES): CC(=O)O[C@H]1CC[C@@]2(C)C(=CC[C@@H]3[C@@H]2CC[C@]2(C)c4c(C)nc5[nH]c6ccccc6c5c4C[C@@H]32)C1
- inhibition [9]: Active
- Activity (CWR22R [10]): inactive
- IC50 (Androgen receptor): 315 nM
- inhibition [11]: Dose-dependent effect
- GI50 (BJ): > 50000 nM
- Activity (CWR22R [12]): inactive
- GI50 (PC-3 [3]): > 100000 nM
- GI50 (CWR22R [4]): 1400 nM
- Activity (VCaP [13]): Active
- GI50 (VCaP [5]): 2000 nM
- inhibition (CWR22R [14]): Active
- NKX3.1 protein downregulation (active/not active) [15]: Active
- inhibition [16]: 29%
- Activity (VCaP [17]): Active
- inhibition (VCaP [18]): Active
- inhibition [19]: inactive
- inhibition [20]: Active
- GI50 (CWR22R [21]): > 50000 nM
- inhibition [22]: Active
- inhibition [23]: inactive
- GI50 (LNCaP C4-2 [8]): 1700 nM
- inhibition [24]: Active
